Experimental data as given in the supplement of paper PMC11368000.

Legend:
Details in all cases: exposure time: 90 min
1083 = donor line of iPSC-derived cardiomyocytes; assay: POD (EC95) for loss of peak frequency (asystole) vs vehicle; higher = less potent (higher point of departure)
Method: (§1)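 Human iPSC-derived cardiomyocytes from 16 donors were exposed for 90 min at 37 °C to each PFAS at 0.1, 1, 10 and 100 µM in 0.5% DMSO, 384-well plates. Kinetic Ca2+ flux (FLIPR) and Hoechst nuclei counts were normalised to vehicle wells and fitted with a hierarchical Bayesian Hill model to give donor-specific PODs: EC05 for beat-rate increase or decrease and for decay-to-rise ratio increase (QT proxy), EC95 for peak-frequency loss (asystole), EC10 for total cell number loss. 0.03 µM is the lower bound.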

1118 = donor line of iPSC-derived cardiomyocytes; assay: as above
Method: as §1

11235 = donor line of iPSC-derived cardiomyocytes; assay: as above
Method: as §1

1309 [1] = donor line of iPSC-derived cardiomyocytes; assay: as above
Method: as §1

1368 = donor line of iPSC-derived cardiomyocytes; assay: as above
Method: as §1

1392 = donor line of iPSC-derived cardiomyocytes; assay: as above
Method: as §1

1434 = donor line of iPSC-derived cardiomyocytes; assay: as above
Method: as §1

1516 = donor line of iPSC-derived cardiomyocytes; assay: as above
Method: as §1

1518 = donor line of iPSC-derived cardiomyocytes; assay: as above
Method: as §1

1531 [2] = donor line of iPSC-derived cardiomyocytes; assay: as above
Method: as §1

1535 = donor line of iPSC-derived cardiomyocytes; assay: as above
Method: as §1

1565 = donor line of iPSC-derived cardiomyocytes; assay: as above
Method: as §1

20032 [3] = donor line of iPSC-derived cardiomyocytes; assay: as above
Method: as §1

20084 = donor line of iPSC-derived cardiomyocytes; assay: as above
Method: as §1

30145 [4] = donor line of iPSC-derived cardiomyocytes; assay: as above
Method: as §1

30171 = donor line of iPSC-derived cardiomyocytes; assay: as above
Method: as §1

1309 [5] = assay: POD (EC10) for decrease in total cell number (cytotoxicity) vs vehicle; higher = less potent (higher point of departure)
Method: as §1

1531 [6] = assay: as above
Method: as §1

20032 [7] = assay: as above
Method: as §1

30145 [8] = assay: as above
Method: as §1

SMILES | POD vs vehicle 1083 [µM] | POD vs vehicle 1118 [µM] | POD vs vehicle 11235 [µM] | POD vs vehicle 1309 [1] [µM] | POD vs vehicle 1368 [µM] | POD vs vehicle 1392 [µM] | POD vs vehicle 1434 [µM] | POD vs vehicle 1516 [µM] | POD vs vehicle 1518 [µM] | POD vs vehicle 1531 [2] [µM] | POD vs vehicle 1535 [µM] | POD vs vehicle 1565 [µM] | POD vs vehicle 20032 [3] [µM] | POD vs vehicle 20084 [µM] | POD vs vehicle 30145 [4] [µM] | POD vs vehicle 30171 [µM] | POD vs vehicle 1309 [5] [µM] | POD vs vehicle 1531 [6] [µM] | POD vs vehicle 20032 [7] [µM] | POD vs vehicle 30145 [8] [µM]
O=S(=O)(O)C(F)(F)C(F)(F)C(F)(F)C(F)(F)F [Perfluorobutanesulfonic_acid] | > 100 | > 100 | > 100 | > 100 | > 100 | > 100 | > 100 | > 100 | > 100 | > 100 | > 100 | > 100 | > 100 | > 100 | > 100 | > 100 | > 100 | > 100 | > 100 | > 100
O=C(O)C(F)(F)C(F)(F)C(F)(F)F [Perfluorobutanoic_acid] | > 100 | > 100 | > 100 | > 100 | > 100 | > 100 | > 100 | > 100 | > 100 | > 100 | > 100 | > 100 | > 100 | > 100 | > 100 | > 100 | > 100 | > 100 | > 100 | > 100
O=C(O)C(F)(F)C(F)(F)C(F)(F)C(F)(F)C(F)(F)C(F)(F)C(F)(F)C(F)(F)C(F)(F)F [Perfluorodecanoic_acid] | 74.6 | 9.5 | 67.4 | > 100 | > 100 | > 100 | 67.4 | 68.8 | > 100 | > 100 | > 100 | > 100 | > 100 | > 100 | > 100 | 36.5 | > 100 | > 100 | 5.59 | > 100
O=C(O)C(F)(F)C(F)(F)C(F)(F)C(F)(F)C(F)(F)C(F)(F)F [Perfluoroheptanoic_acid] | > 100 | > 100 | > 100 | > 100 | > 100 | > 100 | > 100 | > 100 | > 100 | > 100 | > 100 | > 100 | > 100 | > 100 | > 100 | > 100 | > 100 | > 100 | > 100 | > 100
NS(=O)(=O)C(F)(F)C(F)(F)C(F)(F)C(F)(F)C(F)(F)C(F)(F)F [Perfluorohexanesulfonamide] | > 100 | 7.84 | 6.45 | 90.8 | > 100 | > 100 | 58.4 | 77.8 | > 100 | 40.8 | 71.2 | > 100 | 96 | > 100 | > 100 | 49.3 | 70.7 | > 100 | > 100 | > 100
O=S(=O)(O)C(F)(F)C(F)(F)C(F)(F)C(F)(F)C(F)(F)C(F)(F)F [Perfluorohexanesulfonic_acid] | > 100 | > 100 | > 100 | > 100 | > 100 | > 100 | > 100 | > 100 | > 100 | > 100 | > 100 | > 100 | > 100 | > 100 | > 100 | > 100 | > 100 | > 100 | > 100 | > 100
O=C(O)C(F)(F)C(F)(F)C(F)(F)C(F)(F)C(F)(F)F [Perfluorohexanoic_acid] | > 100 | > 100 | > 100 | > 100 | > 100 | > 100 | > 100 | > 100 | > 100 | > 100 | > 100 | > 100 | > 100 | > 100 | > 100 | > 100 | > 100 | > 100 | > 100 | > 100
O=C(O)C(F)(F)C(F)(F)C(F)(F)C(F)(F)C(F)(F)C(F)(F)C(F)(F)C(F)(F)F [Perfluorononanoic_acid] | > 100 | 99.4 | 31.5 | > 100 | > 100 | > 100 | > 100 | > 100 | > 100 | > 100 | > 100 | > 100 | > 100 | > 100 | > 100 | 82.8 | > 100 | > 100 | > 100 | > 100
NC(=O)C(F)(F)C(F)(F)C(F)(F)C(F)(F)C(F)(F)C(F)(F)C(F)(F)F [Perfluorooctanamide] | > 100 | > 100 | > 100 | > 100 | > 100 | > 100 | > 100 | > 100 | > 100 | > 100 | > 100 | > 100 | > 100 | > 100 | > 100 | > 100 | > 100 | > 100 | > 100 | > 100
N=C(N)C(F)(F)C(F)(F)C(F)(F)C(F)(F)C(F)(F)C(F)(F)C(F)(F)F [Perfluorooctanamidine] | > 100 | 25.6 | > 100 | > 100 | > 100 | > 100 | > 100 | > 100 | > 100 | > 100 | > 100 | > 100 | > 100 | > 100 | > 100 | > 100 | > 100 | > 100 | > 100 | > 100
